The structures appear in SMILES notation. In brackets after ≈: the same amount, converted by molar mass.

The nature of series [1]: Solubility of the compound. The format is physicochemical.
Series [2] is described as follows: Intrinsic clearance in human liver microsomes as 1 umol/l measured up to 30 mins by LC-MS analysis. The format is ADME, Microsome. To be noted: read-out: CLH. For orientation: Microsomes from liver hold many membrane-bound enzymes, among them those of drug oxidation.
Series [3] has as its target T1, Diacylglycerol O-acyltransferase 2 (Homo sapiens, UniProt Q96PD7).
T1 sequence (Q96PD7 whole entry): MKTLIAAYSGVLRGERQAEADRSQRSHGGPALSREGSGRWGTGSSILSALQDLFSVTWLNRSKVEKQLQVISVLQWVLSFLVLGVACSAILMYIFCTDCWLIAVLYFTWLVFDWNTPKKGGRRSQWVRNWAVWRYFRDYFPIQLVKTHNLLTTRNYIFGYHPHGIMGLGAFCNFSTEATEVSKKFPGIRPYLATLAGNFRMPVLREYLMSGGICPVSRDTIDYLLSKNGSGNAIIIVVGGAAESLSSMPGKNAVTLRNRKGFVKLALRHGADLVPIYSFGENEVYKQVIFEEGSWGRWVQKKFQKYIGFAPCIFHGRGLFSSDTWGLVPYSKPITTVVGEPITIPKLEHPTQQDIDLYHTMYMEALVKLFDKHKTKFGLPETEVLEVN
The series can be described thus: Inhibition of human recombinant DGAT2 using dioleoyl-sn-glycerol and [14C]oleoyl coenzyme A as substrate after 30 mins by liquid scintillation counting.

Series [4] in a line: Apparent permeability from apical side to basolateral side of human Caco2 cells at 10 umol/l measured up to 120 mins by LCMS analysis. The format is ADME, cell-based. To be noted: Caco-2.
A short description of series [5]: Time dependent inhibition of CYP450 (unknown origin). The format is ADME. The following applies: human.
Series [6] can be described thus: Lipophilicity, log D of the compound at pH 7.4. The series is classed as physicochemical. The following applies: buffer.
Series [7] deals with T2, Acyl-CoA wax alcohol acyltransferase 1 (Homo sapiens, UniProt Q58HT5).
T2 sequence (Q58HT5 whole entry): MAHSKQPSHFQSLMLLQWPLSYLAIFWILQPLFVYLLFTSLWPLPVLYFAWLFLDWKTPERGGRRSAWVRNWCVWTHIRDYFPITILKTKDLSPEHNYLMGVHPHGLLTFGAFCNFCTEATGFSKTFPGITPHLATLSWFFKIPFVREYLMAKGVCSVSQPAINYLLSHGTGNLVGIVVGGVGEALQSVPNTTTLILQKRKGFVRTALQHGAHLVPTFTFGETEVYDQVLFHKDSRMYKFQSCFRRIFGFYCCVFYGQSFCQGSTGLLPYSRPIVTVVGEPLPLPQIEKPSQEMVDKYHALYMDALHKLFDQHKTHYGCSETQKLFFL
The series can be described thus: Inhibition of human recombinant AWAT1 expressed in insect cell membrane using palmitoleyl alcohol and [14C]stearoyl coenzyme A as substrate after 10 to 15 mins by liquid scintillation counting.

Series [8] in a line: Inhibition of CYP450 (unknown origin). The series is classed as ADME. The following applies: human.
Series [9] can be described thus: Dissociation constant, pKa of the compound. The series is classed as physicochemical.
Series [10] concerns the target T3, Diacylglycerol O-acyltransferase 1 (Homo sapiens, UniProt O75907).
T3 sequence (O75907 whole entry): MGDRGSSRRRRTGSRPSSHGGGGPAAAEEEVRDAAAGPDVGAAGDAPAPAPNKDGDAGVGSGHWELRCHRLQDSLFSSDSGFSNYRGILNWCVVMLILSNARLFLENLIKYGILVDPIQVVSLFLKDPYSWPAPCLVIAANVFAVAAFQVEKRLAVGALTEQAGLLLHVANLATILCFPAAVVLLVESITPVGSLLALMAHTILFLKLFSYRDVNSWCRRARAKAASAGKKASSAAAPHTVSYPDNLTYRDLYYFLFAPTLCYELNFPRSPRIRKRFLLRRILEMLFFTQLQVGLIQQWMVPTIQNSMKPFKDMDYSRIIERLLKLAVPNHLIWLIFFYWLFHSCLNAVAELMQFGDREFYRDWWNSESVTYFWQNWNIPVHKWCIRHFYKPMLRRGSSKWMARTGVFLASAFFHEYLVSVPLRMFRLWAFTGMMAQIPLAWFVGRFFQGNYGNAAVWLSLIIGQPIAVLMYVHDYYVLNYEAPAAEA
In words: Inhibition of human recombinant DGAT1 expressed in Sf9 cells using dioleoyl-sn-glycerol and [14C]oleoyl coenzyme A as substrate after 30 mins by liquid scintillation counting.

For series [11], the target named is T4, Acyl-CoA wax alcohol acyltransferase 2 (Homo sapiens, UniProt Q6E213).
T4 sequence (Q6E213 whole entry): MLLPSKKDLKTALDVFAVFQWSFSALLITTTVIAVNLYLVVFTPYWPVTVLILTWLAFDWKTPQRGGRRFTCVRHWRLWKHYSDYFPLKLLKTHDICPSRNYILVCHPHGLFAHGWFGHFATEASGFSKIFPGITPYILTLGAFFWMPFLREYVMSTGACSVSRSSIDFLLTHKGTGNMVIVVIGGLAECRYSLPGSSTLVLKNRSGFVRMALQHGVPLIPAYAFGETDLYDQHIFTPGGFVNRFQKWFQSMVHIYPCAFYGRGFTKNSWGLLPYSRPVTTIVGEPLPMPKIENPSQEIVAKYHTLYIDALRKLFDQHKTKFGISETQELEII
In words: Inhibition of human recombinant AWAT2 expressed in insect cell membrane using cetyl alcohol and [14C]oleoyl coenzyme A as substrate after 10 to 15 mins by liquid scintillation counting.

For another series, the system named is Liver microsomes. The series can be described thus: Ratio of compound-glutathione adduct formation to clozapine-glutathione adduct formation in human liver microsomes at 10 umol/l after 30 mins by glutathione trapping method. The format is ADME, Microsome. The following applies: 0.5 h, 10 µM.

In general, solubility refers to the dissolved amount per volume that the medium holds. Broadly, the IC50 is the point on the concentration scale where inhibition reaches its midpoint. In general, Papp A→B refers to the apparent permeability from the apical to the basolateral side of a cell layer. Broadly, the logD is the decadic logarithm of the distribution of all forms, ionised or not, between an organic phase and buffer at a given pH. Usually pKa stands for the pH at which an ionisable group is half protonated. A higher pKa goes with a weaker acid or stronger base. `CCC1(C)NC(=O)c2cc(S(=O)(=O)Nc3ccc(Cl)cc3)ccc2NC1=O` (racemic) yielded a solubility in series [1] of 2 µM (≈ 0.816 µg/mL). Besides, the microsomal CLint at 1 µM in [2] stood at 3 µL/min/mg. Also, the IC50 in series [3] was over 10 µM; in series [7], over 100 µM; in series [10] it was over 10 µM; in series [11], over 100 µM. Also, the Papp A→B at 2 h, 10 µM in series [4] stood at 5.5 ×10⁻⁶ cm/s. For the same compound, the “inhibition (INH)” value in [5] and in [8] was “Not Active” each time. Further, the pH-dependent lipophilicity (logD) in [6] worked out at 2.9. In addition, the pKa in [9] worked out at 8.1. The Ratio in the series on Liver microsomes worked out at 0.4.

The record behind these values is ChEMBL document CHEMBL2375263, “Identification and design of a novel series of MGAT2 inhibitors” (Bioorg Med Chem Lett, 2013).
